Ki data for 18 molecules are collected here from patent US9914732B2, “Diazabicyclo[4.3.1]decane derivatives for treatment of psychiatric disorders” (Max-Planck-Gesellschaft zur Forderung der Wissenschaften …, priority 2014, dated 2018).

Each structure is given as a SMILES string. pKi: −log10 of the molar value. Bounds are passed on as bounds.

The target of one assay is T1, FKBP51 (Homo sapiens, UniProt Q13451).
T1 sequence (Q13451 42-130 limits assumed): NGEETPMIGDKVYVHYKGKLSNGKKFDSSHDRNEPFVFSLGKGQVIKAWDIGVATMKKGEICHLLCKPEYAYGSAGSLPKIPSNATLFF
As to the kind of experiment: Fluorescence polarization (FP) assay, binding to the FK506-binding domain of FKBP51. Conditions: FK506-binding domain of FKBP51 (FKBP51FK1), competition with fluorescent ligand 2b. As to the method: (§1) In the present invention, in vitro fluorescence polarization assays with the compounds of the general formula (I) were performed to determine the binding affinities to FKBP51 and FKBP52 or to the isolated FK506-binding domains of FKBP51 and FKBP52 ([…]). Binding to the isolated FK506-binding domains is reliably indicative of binding to the full length proteins. The affinities for the isolated FK506-binding domains and for full-length FKBP51 or FKBP52 are the same for all compounds tested so far (Kozany et al, ChemBioChem 2009, 10, 1402-1410).
(§2) Example 11: Fluorescence Polarization (FP) Assays
(§3) In-vitro fluorescence polarization assays were performed to determine the binding affinities for FKBP51 and 52 according to a literature procedure (Kozany, C.; Marz, A.; Kress, C.; Hausch, F., Fluorescent probes to characterise FK506-binding proteins. Chembiochem 2009, 10, (8), 1402-10).
(§4) For fluorescence polarization assays the fluorescent ligand 2b was dissolved in HEPES (20 mm, pH 8), Triton-X100 (0.01%), at double the concentration required for the final sample. The target protein was also diluted in this assay buffer at double the highest concentration required for the final sample. This protein stock was used for a 1:1 serial dilution.
(§5) The fluorescent ligand 2b was diluted in assay buffer to a concentration double the final concentration (20 nM 2b). The inventive compound was dissolved in DMSO to reach a 100-times concentrated stock solution. This was used for a 1:1 serial dilution in DMSO. Every sample of this serial dilution was diluted by a factor of 50 in assay buffer supplemented with ligand 2b to achieve a 2× concentrated mixture of ligand 2b and the inventive compound. To this competitive ligand double the protein concentration for 2b assay: FKBP51FK1 560 nM (2×280 nM) or FKBP52FK1 800 nM (2×400 nM) diluted in assay buffer was added.
(§6) The samples were transferred to black 384-well assay plates (No.: 3575; Corning Life Sciences). After incubation at room temperature for 30 min the fluorescence anisotropy was measured (GENios Pro, Tecan, Männedorf, Switzerland) by using an excitation filters of 485/20 nm and emission filters of 535/25 nm. The binding assays were performed in duplicates in the plate format.
(§7) The competition curves were analyzed by using SigmaPlot9. Data were fitted to a four parameter logistic curve to deduce the IC50 values. For the analysis of K1 values, data were fitted to the following equation (Z. X. Wang, FEBS Lett. 1995, 360, 111-114). A=(Amax−Amin)/[L]t×(([L]t×((2×((Klig+Kcomp+[L]t+[I]t−[R]t)^2−3×(Kcomp×([L]t−[R]t)+Klig×([I]t−[R]t)+[…]))^0.5×COS(ARCCOS((−2×(Klig+Kcomp+[L]t+[I]t−[R]t)^3+9×(Klig+Kcomp+[L]t+[I]t−[R]t)×(Kcomp×([L]t−[R]t)+Klig×([I]t−[R]t)+Klig×Kcomp)−27×(−1×Klig×Kcomp×[R]t))/(2×((((Klig+Kcomp+[L]t+[I]t−[R]t)^2−3×(Kcomp×([L]t−[R]t)+Klig×([I]t−[R]t)+Klig×Kcomp))^3)^0.5)))/3))−(Klig+Kcomp+[L]t+[I]t−[R]t)))/((3×Klig)+((2×((Klig+Kcomp+[L]t+[I]t−[R]t)^2−3×(Kcomp×([L]t−[R]t)+Klig×([I]t−[R]t)+Klig×Kcomp))^0.5×COS(ARCCOS((−2×(Klig+Kcomp+[L]t+[I]t−[R]t)^3+9×(Klig+Kcomp+[L]t+[I]t−[R]t)×(Kcomp×([L]t−[R]t)+Klig×([I]t−[R]t)+Klig×Kcomp)−27×(−1×Klig×Kcomp×[R]t))/(2×((((Klig+Kcomp+[L]t+[I]t−[R]t)^2−3×(Kcomp×([L]t−[R]t)+Klig×([I]t−[R]t)+Klig×Kcomp))^3)^0.5)))/3))−(Klig+Kcomp+[L]t+[I]t−[R]t)))+Amin
(§8) In this equation Klig and Kcomp stand for the Kd values of the used tracer or competing inhibitor, [I]t is referring to the total concentration of the titrated inhibitor.
In general terms: In fluorescence polarisation assays a small probe gives low polarisation when free and higher when bound to something large.

Another assay has as its target T2, FKBP52 (Homo sapiens, UniProt Q02790).
T2 sequence (Q02790 50-138 limits assumed): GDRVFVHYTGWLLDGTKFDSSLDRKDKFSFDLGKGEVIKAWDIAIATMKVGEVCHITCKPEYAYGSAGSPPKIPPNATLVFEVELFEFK
As to the kind of experiment: Fluorescence polarization (FP) assay, binding to the FK506-binding domain of FKBP52. Conditions: FK506-binding domain of FKBP52 (FKBP52FK1), competition with fluorescent ligand 2b. As to the method:
as §1, §2, §3, §4, §5, §6, §7, §8

Usually pKi stands for the Ki on a negative log10 scale, so that one unit is a factor of ten. Lower therefore signals a large Ki. With `COCC1CN(Cc2ccccn2)C(=O)C2CCCC1N2S(=O)(=O)c1cc(Cl)cc(Cl)c1` (stereo in doubt) [Compound M5, (1S,5R,6R)-10-((3,5-dichlorophenyl)sulfonyl)-5-(methoxymethyl)-3-(pyridin-2-ylmethyl)-3,10-diazabicyclo[4.3.1]decan-2-one], the pKi at FKBP51 and at FKBP52 was at least 7.00 throughout.
Regarding `COCC1CN(Cc2cnnn2-c2ccccc2)C(=O)C2CCCC1N2S(=O)(=O)c1cccc(F)c1` (stereo in doubt) [Compound N29, (1S,5R,6R)-10-((3-fluorophenyl)sulfonyl)-5-(methoxymethyl)-3-((1-phenyl-1H-1,2,3-triazol-5-yl)methyl)-3,10-diazabicyclo[4.3.1]decan-2-one], the pKi on FKBP51 and on FKBP52 was 6.30 to 7.00 in each case.
Regarding `COc1ccc(OCCN2C[C@H]([C@H](O)CO)C3CCCC(C2=O)N3S(=O)(=O)c2cc(Cl)cc(Cl)c2)cc1OC` (stereo partly drawn) [C2(C2a/b), (1S,5S,6R)-10-((3,5-dichlorophenyl)sulfonyl)-5-(1,2-dihydroxyethyl)-3-(2-(3,4-dimethoxyphenoxy)ethyl)-3, 10-diazabicyclo[4.3.1]decan-2-one], the pKi at FKBP51 and at FKBP52 was at least 7.00 in each case.
For the molecule `COCCN1C[C@H](C(C)(C)O)[C@H]2CCC[C@@H](C1=O)N2S(=O)(=O)c1cc(Cl)cc(Cl)c1` [Compound B3, (1S,5S,6R)-10-((3,5-dichlorophenyl)sulfonyl)-5-(2-hydroxypropan-2-yl)-3-(2-methoxyethyl)-3,10-diazabicyclo[4.3.1]decan-2-one], the pKi at FKBP51 and on FKBP52 was at least 7.00 in each case.
In the case of `COCCN1C[C@H]([C@H](C)O)[C@H]2CCC[C@@H](C1=O)N2S(=O)(=O)c1cc(Cl)cc(Cl)c1` [Compound B7, (1S,5S,6R)-10-((3,5-dichlorophenyl)sulfonyl)-5-((S)-1-hydroxyethyl)-3-(2-methoxyethyl)-3,10-diazabicyclo[4.3.1]decan-2-one], the pKi on FKBP51 and on FKBP52 was at least 7.00 throughout.
Turning to `COCCN1C[C@H](CCO)[C@H]2CCC[C@@H](C1=O)N2S(=O)(=O)c1cc(Cl)cc(Cl)c1` [Compound B8, (1S,5S,6R)-10-((3,5-dichlorophenyl)sulfonyl)-5-(2-hydroxyethyl)-3-(2-methoxyethyl)-3,10-diazabicyclo[4.3.1]decan-2-one], the pKi on FKBP51 and at FKBP52 was 6.30 to 7.00 in each case.
Consider `COCCN1C[C@H](C=O)[C@H]2CCC[C@@H](C1=O)N2S(=O)(=O)c1cc(Cl)cc(Cl)c1` [Compound B9, (1S,5S,6R)-10-((3,5-dichlorophenyl)sulfonyl)-3-(2-methoxyethyl)-2-oxo-3,10-diazabicyclo[4.3.1]decane-5-carbaldehyde], for which the pKi at FKBP51 and at FKBP52 was 6.30 to 7.00 in each case.
Take `COCCN1C[C@H](C(N)=O)[C@H]2CCC[C@@H](C1=O)N2S(=O)(=O)c1cc(Cl)cc(Cl)c1` [Compound B11, (1S,5S,6R)-10-((3,5-dichlorophenyl)sulfonyl)-3-(2-methoxyethyl)-2-oxo-3,10-diazabicyclo[4.3.1]decane-5-carboxamide]: the pKi on FKBP51 and at FKBP52 was 6.30 to 7.00 throughout.
For the molecule `CNC[C@H]1CN(CCOC)C(=O)[C@@H]2CCC[C@H]1N2S(=O)(=O)c1cc(Cl)cc(Cl)c1` [Compound B12, (1S,5S,6R)-10-((3,5-dichlorophenyl)sulfonyl)-3-(2-methoxyethyl)-5-((methylamino)methyl)-3,10-diazabicyclo[4.3.1]decan-2-one], the pKi on FKBP51 and on FKBP52 was 6.30 to 7.00 throughout.
Consider `CC[C@H]1CN(CCOC)C(=O)[C@@H]2CCC[C@H]1N2S(=O)(=O)c1cc(Cl)cc(Cl)c1` [Compound B15, (1S,5S,6R)-10-((3,5-dichlorophenyl)sulfonyl)-5-ethyl-3-(2-methoxyethyl)-3,10-diazabicyclo[4.3.1]decan-2-one], for which the pKi on FKBP51 and at FKBP52 was at least 7.00 throughout.
Turning to `CCOCCN1C[C@H](C(O)CO)[C@H]2CCC[C@@H](C1=O)N2S(=O)(=O)c1cc(Cl)cc(Cl)c1` (stereo partly drawn) [Compound C3, (1S,5S,6R)-10-((3,5-dichlorophenyl)sulfonyl)-5-(1,2-dihydroxyethyl)-3-(2-ethoxyethyl)-3,10-diazabicyclo[4.3.1]decan-2-one], the negative-log Ki (pKi) on FKBP51 and at FKBP52 was 6.30 to 7.00 throughout.
For `COc1ccc(OCCN2C[C@H](C(C)(C)O)[C@H]3CCC[C@@H](C2=O)N3S(=O)(=O)c2cc(Cl)cc(Cl)c2)cc1OC` [Compound D3, (1S,5S,6R)-10-((3,5-dichlorophenyl)sulfonyl)-3-(2-(3,4-dimethoxyphenoxy)ethyl)-5-(2-hydroxypropan-2-yl)-3,10-diazabicyclo[4.3.1]decan-2-one], the pKi on FKBP51 and at FKBP52 was at least 7.00 in each case.
For the molecule `COc1ccc(OCCN2C[C@H](CCO)[C@H]3CCC[C@@H](C2=O)N3S(=O)(=O)c2cc(Cl)cc(Cl)c2)cc1OC` [Compound D8, (1S,5S,6R)-10-((3,5-dichlorophenyl)sulfonyl)-3-(2-(3,4-dimethoxyphenoxy)ethyl)-5-(2-hydroxyethyl)-3,10-diazabicyclo[4.3.1]decan-2-one], the pKi at FKBP51 and at FKBP52 was at least 7.00 each time.
With `O=C1NC[C@H](O)[C@H]2CCC[C@@H]1N2S(=O)(=O)c1cc(Cl)cc(Cl)c1` [Compound G6, (1S,5S,6R)-10-((3,5-dichlorophenyl)sulfonyl)-5-hydroxy-3,10-diazabicyclo[4.3.1]decan-2-one], the pKi at FKBP51 is 6.00 to 6.30; at FKBP52, 6.30 to 7.00.
For `N[C@@H]1CNC(=O)[C@@H]2CCC[C@H]1N2S(=O)(=O)c1cc(Cl)cc(Cl)c1` [Compound H1.2, (1S,5R,6R)-5-amino-10-((3,5-dichlorophenyl)sulfonyl)-3,10-diazabicyclo[4.3.1]decan-2-one], in that order: 5.30 to 6.00 and 5.30 to 6.00.
For `CO[C@H]1CN(C)C(=O)[C@@H]2CCC[C@H]1N2S(=O)(=O)c1cc(Cl)cc(Cl)c1` [Compound H1.3, (1S,5S,6R)-10-((3,5-dichlorophenyl)sulfonyl)-5-methoxy-3-methyl-3,10-diazabicyclo[4.3.1]decan-2-one], in that order: 6.00 to 6.30 and 6.00 to 6.30.
The corresponding values for `O=C1NC[C@@H](O)[C@H]2CCC[C@@H]1N2S(=O)(=O)c1cc(Cl)cc(Cl)c1` [Compound H1.4, (1S,5R,6R)-10-((3,5-dichlorophenyl)sulfonyl)-5-hydroxy-3,10-diazabicyclo[4.3.1]decan-2-one] are 5.30 to 6.00 and 5.30 to 6.00.
Regarding `COCCO[C@H]1CN(CCOC)C(=O)[C@@H]2CCC[C@H]1N2S(=O)(=O)c1cc(Cl)cc(Cl)c1` [Compound H2.1, (1S,5S,6R)-10-((3,5-dichlorophenyl)sulfonyl)-5-(2-methoxyethoxy)-3-(2-methoxyethyl)-3,10-diazabicyclo[4.3.1]decan-2-one], the pKi on FKBP51 and on FKBP52 was 6.30 to 7.00 each time.
